Experimental data: patent publication US20250230193A1, “CYCLIC COMPOUND HAVING SELECTIVE KRAS INHIBITORY EFFECT ON HRAS AND NRAS” (CHUGAI SEIYAKU KABUSHIKI KAISHA, priority 2022, published 2025)

How the values were obtained:
[1] = target: GDP-bound NRAS wild-type protein (Homo sapiens, UniProt P01111); experiment: Binding to NRAS by surface plasmon resonance (SPR), Single Cycle Kinetics; settings: KD ratio NRAS/KRAS, SPR
[2] = target: GDP-bound HRAS wild-type protein (Homo sapiens, UniProt P01112); experiment: Binding to HRAS by surface plasmon resonance (SPR), Single Cycle Kinetics; settings: KD ratio HRAS/KRAS, SPR
Chain of GDP-bound HRAS wild-type protein (P01112 whole entry): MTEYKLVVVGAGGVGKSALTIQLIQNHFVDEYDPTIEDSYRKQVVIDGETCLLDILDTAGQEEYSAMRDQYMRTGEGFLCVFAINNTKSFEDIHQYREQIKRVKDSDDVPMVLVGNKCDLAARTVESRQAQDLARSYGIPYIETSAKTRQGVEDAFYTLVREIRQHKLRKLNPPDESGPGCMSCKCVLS

Chain of GDP-bound NRAS wild-type protein (P01111 whole entry): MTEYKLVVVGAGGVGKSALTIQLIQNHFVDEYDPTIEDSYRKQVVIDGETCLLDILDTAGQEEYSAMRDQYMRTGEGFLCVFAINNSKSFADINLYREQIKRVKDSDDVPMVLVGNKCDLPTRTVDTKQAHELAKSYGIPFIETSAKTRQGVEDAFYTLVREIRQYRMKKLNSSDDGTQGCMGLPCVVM

Row | SMILES | NRAS/KRAS (ratio of KD value with respect to GDP-bound NRAS wild-type protein to KD value with respect to KRAS) [1] | HRAS/KRAS (ratio of KD value with respect to GDP-bound HRAS wild-type protein to KD value with respect to KRAS) [2]
1 | CCO[C@@H]1C[C@H]2C(=O)NC3(CCC3)C(=O)N(C)[C@@H](C3CCCC3)C(=O)N(C)[C@H](C(=O)N3CCOCC3)CC(=O)N(C)[C@@H](CCOC)C(=O)N[C@@H]([C@@H](C)CC)C(=O)N(C)CC(=O)N(C)[C@H]3CCCCN(C3=O)[C@@H](Cc3ccc(C(F)(F)F)cc3)C(=O)N(C)CC(=O)N[C@@H](CCc3cc(F)c(C(F)(F)F)c(F)c3)C(=O)N2C1 [PP0720] | C (A compound having a KD ratio of 0.1 or more and less than 3 is denoted as C) | B (a compound having 3 or more and less than 10 is denoted as B)
2 | CCO[C@@H]1C[C@H]2C(=O)NC3(CCC3)C(=O)N(C)[C@@H](C3CCCC3)C(=O)N(C)[C@H](C(=O)N3CCOCC3)CC(=O)N(C)C[C@@H](C)C(=O)N[C@@H]([C@@H](C)CC)C(=O)N(C)CC(=O)N(C)[C@H]3CCCCN(C3=O)[C@@H](Cc3ccc(C(F)(F)F)cc3)C(=O)N(C)CC(=O)N[C@@H](CCc3cc(F)c(C(F)(F)F)c(F)c3)C(=O)N2C1 [PP0721] | B (a compound having 3 or more and less than 10 is denoted as B) | B (a compound having 3 or more and less than 10 is denoted as B)
3 | CCO[C@@H]1C[C@H]2C(=O)NC3(CCC3)C(=O)N(C)[C@@H](C3CCCC3)C(=O)N(C)[C@H](C(=O)N3CCOCC3)CC(=O)N(C)C(C)(C)C(=O)N[C@@H]([C@@H](C)CC)C(=O)N(C)CC(=O)N(C)[C@H]3CCCCN(C3=O)[C@@H](Cc3ccc(C(F)(F)F)cc3)C(=O)N(C)CC(=O)N[C@@H](CCc3cc(F)c(C(F)(F)F)c(F)c3)C(=O)N2C1 [PP0722] | C (A compound having a KD ratio of 0.1 or more and less than 3 is denoted as C) | B (a compound having 3 or more and less than 10 is denoted as B)
4 | CCO[C@@H]1C[C@H]2C(=O)NC3(CC(C)(C)C3)C(=O)N(C)[C@@H](C3CCCC3)C(=O)N(C)[C@H](C(=O)N(C)C)CC(=O)N(C)[C@@H](C)C(=O)N[C@@H]([C@@H](C)CC)C(=O)N(C)CC(=O)N(C)[C@H]3CCCCCN(C3=O)[C@@H](Cc3ccc(C(F)(F)F)cc3)C(=O)N(C)CC(=O)N[C@@H](CCc3cc(F)c(C(F)(F)F)c(F)c3)C(=O)N2C1 [PP0723] | B (a compound having 3 or more and less than 10 is denoted as B) | B (a compound having 3 or more and less than 10 is denoted as B)
5 | CCO[C@@H]1C[C@H]2C(=O)NC3(CC=CC3)C(=O)N(C)[C@@H](C3CCCC3)C(=O)N(C)[C@H](C(=O)N(C)C)CC(=O)N(C)[C@@H](C)C(=O)N[C@@H]([C@@H](C)CC)C(=O)N(C)CC(=O)N(C)[C@H]3CCCCCN(C3=O)[C@@H](Cc3ccc(C(F)(F)F)cc3)C(=O)N(C)CC(=O)N[C@@H](CCc3cc(F)c(C(F)(F)F)c(F)c3)C(=O)N2C1 [PP0724] | B (a compound having 3 or more and less than 10 is denoted as B) | B (a compound having 3 or more and less than 10 is denoted as B)
6 | CCO[C@@H]1C[C@H]2C(=O)NC3(CCC(F)(F)CC3)C(=O)N(C)[C@@H](C3CCCC3)C(=O)N(C)[C@H](C(=O)N(C)C)CC(=O)N(C)[C@@H](C)C(=O)N[C@@H]([C@@H](C)CC)C(=O)N(C)CC(=O)N(C)[C@H]3CCCCCN(C3=O)[C@@H](Cc3ccc(C(F)(F)F)cc3)C(=O)N(C)CC(=O)N[C@@H](CCc3cc(F)c(C(F)(F)F)c(F)c3)C(=O)N2C1 [PP0725] | B (a compound having 3 or more and less than 10 is denoted as B) | B (a compound having 3 or more and less than 10 is denoted as B)
7 | CCO[C@@H]1C[C@H]2C(=O)NC3(CC(C)(C)C3)C(=O)N(C)[C@@H](C3CCCC3)C(=O)N(C)[C@H](C(=O)N3CCOCC3)CC(=O)N(C)[C@@H](CC(C)C)C(=O)N[C@@H]([C@@H](C)CC)C(=O)N(C)CC(=O)N(C)[C@H]3CCCCCN(C3=O)[C@@H](Cc3ccc(C(F)(F)F)cc3)C(=O)N(C)CC(=O)N[C@@H](CCc3cc(F)c(C(F)(F)F)c(F)c3)C(=O)N2C1 [PP0726] | B (a compound having 3 or more and less than 10 is denoted as B) | B (a compound having 3 or more and less than 10 is denoted as B)
8 | CCO[C@@H]1C[C@H]2C(=O)NC3(CC=CC3)C(=O)N(C)[C@@H](C3CCCC3)C(=O)N(C)[C@H](C(=O)N3CCOCC3)CC(=O)N(C)[C@@H](CC(C)C)C(=O)N[C@@H]([C@@H](C)CC)C(=O)N(C)CC(=O)N(C)[C@H]3CCCCCN(C3=O)[C@@H](Cc3ccc(C(F)(F)F)cc3)C(=O)N(C)CC(=O)N[C@@H](CCc3cc(F)c(C(F)(F)F)c(F)c3)C(=O)N2C1 [PP0727] | B (a compound having 3 or more and less than 10 is denoted as B) | B (a compound having 3 or more and less than 10 is denoted as B)
9 | CCO[C@@H]1C[C@H]2C(=O)NC3(CCC(F)(F)CC3)C(=O)N(C)[C@@H](C3CCCC3)C(=O)N(C)[C@H](C(=O)N3CCOCC3)CC(=O)N(C)[C@@H](CC(C)C)C(=O)N[C@@H]([C@@H](C)CC)C(=O)N(C)CC(=O)N(C)[C@H]3CCCCCN(C3=O)[C@@H](Cc3ccc(C(F)(F)F)cc3)C(=O)N(C)CC(=O)N[C@@H](CCc3cc(F)c(C(F)(F)F)c(F)c3)C(=O)N2C1 [PP0728] | B (a compound having 3 or more and less than 10 is denoted as B) | B (a compound having 3 or more and less than 10 is denoted as B)
10 | CCO[C@@H]1C[C@H]2C(=O)NC3(CCC3)C(=O)N(C)[C@@H](C3CCCC3)C(=O)N(C)[C@H](C(=O)N(C)C)CC(=O)N(C)[C@@H](C)C(=O)N[C@@H]([C@H](C)CC)C(=O)N(C)CC(=O)N(C)[C@H]3CCCCCN(C3=O)[C@@H](Cc3ccc(C(F)(F)F)cc3)C(=O)N(C)CC(=O)N[C@@H](CCc3cc(F)c(C(F)(F)F)c(F)c3)C(=O)N2C1 [PP0729] | B (a compound having 3 or more and less than 10 is denoted as B) | B (a compound having 3 or more and less than 10 is denoted as B)
11 | CCO[C@@H]1C[C@H]2C(=O)NC3(CCC3)C(=O)N(C)[C@@H](C3CCCC3)C(=O)N(C)[C@H](C(=O)N(C)C)CC(=O)N(C)[C@@H](C)C(=O)N[C@@H]([C@H](C)CC)C(=O)N(C)CC(=O)N(C)[C@H]3CCCCN(C3=O)[C@@H](Cc3ccc(C(F)(F)F)cc3)C(=O)N(C)CC(=O)N[C@@H](CCc3cc(F)c(C(F)(F)F)c(F)c3)C(=O)N2C1 [PP0730] | C (A compound having a KD ratio of 0.1 or more and less than 3 is denoted as C) | C (A compound having a KD ratio of 0.1 or more and less than 3 is denoted as C)
12 | CC[C@H](C)[C@@H]1NC(=O)[C@H](CC)N(C)C(=O)C[C@@H](C(=O)N(C)C)N(C)C(=O)[C@H](C2CCCC2)N(C)C(=O)C2(CCC2)NC(=O)[C@@H]2C[C@H](N3CCC(F)(F)CC3)CN2C(=O)[C@H](CCc2cc(F)c(C(F)(F)F)c(F)c2)NC(=O)CN(C)C(=O)[C@H](Cc2ccc(C(F)(F)F)cc2)N2CCCCC[C@@H](C2=O)N(C)C(=O)CN(C)C1=O [PP0731] | B (a compound having 3 or more and less than 10 is denoted as B) | B (a compound having 3 or more and less than 10 is denoted as B)
13 | CC[C@H](C)[C@@H]1NC(=O)[C@H](CC)N(C)C(=O)C[C@@H](C(=O)N(C)C)N(C)C(=O)[C@H](C2CCCC2)N(C)C(=O)C2(CCC2)NC(=O)[C@@H]2C[C@H](N3CCC(F)(F)CC3)CN2C(=O)[C@H](CCc2cc(F)c(C(F)(F)F)c(F)c2)NC(=O)CN(C)C(=O)[C@H](Cc2ccc(C(F)(F)F)cc2)N2CCCC[C@@H](C2=O)N(C)C(=O)CN(C)C1=O [PP0732] | C (A compound having a KD ratio of 0.1 or more and less than 3 is denoted as C) | B (a compound having 3 or more and less than 10 is denoted as B)
14 | CC[C@H](C)[C@@H]1NC(=O)[C@H](CC)N(C)C(=O)C[C@@H](C(=O)N(C)C)N(CC)C(=O)[C@H](C2CCCC2)N(C)C(=O)C2(CCC2)NC(=O)[C@@H]2C[C@@H](N3CCC(F)(F)CC3)CN2C(=O)[C@H](CCc2cc(F)c(C(F)(F)F)c(F)c2)NC(=O)CN(C)C(=O)[C@H](Cc2ccc(C(F)(F)F)cc2)N2CCCC[C@@H](C2=O)N(C)C(=O)CN(C)C1=O [PP0733] | B (a compound having 3 or more and less than 10 is denoted as B) | B (a compound having 3 or more and less than 10 is denoted as B)
